# According to patent US5151432A, “Substituted amino acid compounds” (Adir et Compagnie, priority 1989, dated 1992):
# How the values were obtained:
# [1] = target: angiotensin I converting enzyme (Homo sapiens, UniProt P12821); assay: Inhibitory effects on angiotensin I converting enzyme in vitro (conversion of hippurylhistidylleucine to hippuric acid, RYAN method); type: biochemical; conditions: substrate HHL
# Procedure: The activity of the converting enzyme is determined in vitro according to the method of RYAN J. W. et al. (Biochem. J., 1977, 167, 501-504), which utilizes the reaction of conversion of hippurylhistidylleucine (HHL) to hippuric acid. The latter is assayed by liquid scintillation after extraction with ethyl acetate. The inhibitory effect of a compound is determined by incubation at different doses in the presence of the substrate and the converting enzyme. The results are expressed as the IC50 of these compounds.
# [2] = test system: amnesic scopolamine-treated animals (scopolamine-induced amnesia); assay: Promnesic effects: one trial-passive avoidance test in rats with scopolamine-induced amnesia; type: in vivo, Male OFA rats (Iffa-Credo); conditions: for % Retention at 300 sec. / Latency of transit: 24 h retention
# Text: Male OFA rats (Iffa-Credo) weighting 210-240 g are placed in individual cages under standard environmental conditions. The memory test is a test of one trial-passive avoidance in which experimental amnesia is induced by prior injection of scopolamine.
# The apparatus consists of a two-compartment enclosure separated by an automatically closing door.
# On the day of conditioning, each animal is placed during 60 seconds in the aversive compartment (white, brightly lit).
# Then the door is rapidly open and the rat can freely enter the compartment where it feels secure (black and dark). Transit thereto triggers closing of the door, followed by application to the animal of an unescapable electric shock via the floor of the dark compartment (0.6 mA; 3 seconds).
# Memory retention is measured 24 hours later under the same conditions. For this purpose, the latency of transit to the black compartment is measured and the maximum observation time is set at 300 seconds.
# The memory enhancing effect of the compounds under investigation is measured in animals receiving scopolamine. These compounds are administered I.P. twice daily during the 3 days preceding the memory test, and then 1 hour before the conditioning test (i.e. 30 minutes before the scopolamine).
# The promnesic effects of the compounds increase the transit time relative to the amnesic animals.
# The compounds of the present invention are compared to oxiracetam, the nootropic agent most recently proposed in the therapy of memory disorders.
# Chain of angiotensin I converting enzyme (P12821 30-1306): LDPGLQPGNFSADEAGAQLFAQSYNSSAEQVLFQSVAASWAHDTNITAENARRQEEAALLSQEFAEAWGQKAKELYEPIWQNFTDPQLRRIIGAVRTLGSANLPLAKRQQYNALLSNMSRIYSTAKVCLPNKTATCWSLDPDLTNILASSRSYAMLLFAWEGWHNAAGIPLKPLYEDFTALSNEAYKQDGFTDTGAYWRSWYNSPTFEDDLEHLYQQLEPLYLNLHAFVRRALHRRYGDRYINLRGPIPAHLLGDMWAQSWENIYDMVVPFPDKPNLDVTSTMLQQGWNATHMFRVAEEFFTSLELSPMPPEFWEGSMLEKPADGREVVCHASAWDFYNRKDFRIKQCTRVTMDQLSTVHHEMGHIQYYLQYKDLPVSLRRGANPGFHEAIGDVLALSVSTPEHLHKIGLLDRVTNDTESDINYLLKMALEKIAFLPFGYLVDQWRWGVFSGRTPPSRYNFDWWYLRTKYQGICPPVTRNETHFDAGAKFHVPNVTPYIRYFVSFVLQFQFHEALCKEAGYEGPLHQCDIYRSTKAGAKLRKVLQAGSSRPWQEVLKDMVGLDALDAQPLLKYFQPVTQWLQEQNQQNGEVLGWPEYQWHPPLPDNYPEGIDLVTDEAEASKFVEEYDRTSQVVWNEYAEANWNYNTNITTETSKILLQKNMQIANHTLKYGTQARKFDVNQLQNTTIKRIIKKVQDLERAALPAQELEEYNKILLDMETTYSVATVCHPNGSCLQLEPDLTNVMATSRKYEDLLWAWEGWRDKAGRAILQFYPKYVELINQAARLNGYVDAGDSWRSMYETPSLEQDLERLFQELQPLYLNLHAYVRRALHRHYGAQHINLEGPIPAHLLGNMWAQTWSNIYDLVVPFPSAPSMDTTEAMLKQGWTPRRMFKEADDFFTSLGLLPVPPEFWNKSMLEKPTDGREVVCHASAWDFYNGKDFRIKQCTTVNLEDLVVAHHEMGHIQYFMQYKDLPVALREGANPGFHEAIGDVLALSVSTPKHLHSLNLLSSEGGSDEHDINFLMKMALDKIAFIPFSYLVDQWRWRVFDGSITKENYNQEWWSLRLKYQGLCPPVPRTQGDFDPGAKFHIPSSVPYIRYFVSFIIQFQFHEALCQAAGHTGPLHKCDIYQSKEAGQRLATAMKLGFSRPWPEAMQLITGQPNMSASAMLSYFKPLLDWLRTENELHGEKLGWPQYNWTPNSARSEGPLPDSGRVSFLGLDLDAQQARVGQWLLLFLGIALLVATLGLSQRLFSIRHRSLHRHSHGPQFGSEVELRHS
SMILES,IC50 [1],% Retention at 300 sec. ([2]; 1 mg/kg I.P.),Latency of transit ([2]; 1 mg/kg I.P.),% Retention at 300 sec. ([2]; 3 mg/kg I.P.),Latency of transit ([2]; 3 mg/kg I.P.),% Retention at 300 sec. ([2]; 0.003 mg/kg I.P.),Latency of transit ([2]; 0.003 mg/kg I.P.),% Retention at 300 sec. ([2]; 0.01 mg/kg I.P.),Latency of transit ([2]; 0.01 mg/kg I.P.),% Retention at 300 sec. ([2]; 0.03 mg/kg I.P.),Latency of transit ([2]; 0.03 mg/kg I.P.),% Retention at 300 sec. ([2]; 0.1 mg/kg I.P.),Latency of transit ([2]; 0.1 mg/kg I.P.),% Retention at 300 sec. ([2]; 0.3 mg/kg I.P.),Latency of transit ([2]; 0.3 mg/kg I.P.),also measured
"CCC[C@H](N[C@@H](C)C(=O)N1C2CCC(CC2)[C@H]1C(N)=O)C(=O)O [Example 2, (3S)-2-{(S)-2-[(S)-1-CARBOXYBUTYLAMINO]-PROPIONYL}-3-CARBAMOYL-2-AZABICYCLO-[2.2.2]OCTANE]",50 nM,,,,,,,,,,,,,,,
"NCCCC[C@H](N[C@@H](CCc1ccccc1)C(=O)O)C(=O)N1C2CCC(CC2)[C@H]1C(N)=O [Example 8, (3S)-2-{(S)-2-[(S)-1-CARBOXY-3-PHENYLPROPYLAMINO]-6-AMINOHEXANOYL}-3-CARBAMOYL-2-AZABICYCLO[2.2.2]OCTANE]",18 nM,,,,,,,,,,,,,,,
"NC(=O)CN1CC(O)CC1=O (stereo not drawn) [OXIRACETAM, oxiracetam, reference compound]",,10%,97.4 s,10%,126.5 s,,,,,,,,,,,"% Retention at 300 sec. ([2]; 10 mg/kg I.P.): 5%; Latency of transit ([2]; 10 mg/kg I.P.): 115.3 s; % Retention at 300 sec. ([2]; 30 mg/kg I.P.): 30%; Latency of transit ([2]; 30 mg/kg I.P.): 150.1 s; % Retention at 300 sec. ([2]; 100 mg/kg I.P.): 40%; Latency of transit ([2]; 100 mg/kg I.P.): 182.5 s; % Retention at 300 sec. ([2]; 300 mg/kg I.P.): 45%; Latency of transit ([2]; 300 mg/kg I.P.): 200.2 s; % Retention at 300 sec. ([2]; 1000 mg/kg I.P.): 30%; Latency of transit ([2]; 1000 mg/kg I.P.): 175.8 s; minimal effective dose ([2]; Rattus norvegicus, ip, I.P., minimal active dose, read-out: dose with protective effect (scopolamine-induced amnesia)): ≥ 30 mg/kg"
"CCCCCCCCOC(=O)[C@@H]1C2CCC(CC2)N1C(=O)[C@H](C)N[C@@H](CCC)C(N)=O [Example 4, (3S)-2-{(S)-2-[(S)-1-CARBAMOYLBUTYLAMINO]PROPIONYL}-2-AZABICYCLO[2.2.2]-OCTANE-3-CARBOXYLIC ACID n-OCTYL ESTER]",,40%,171.5 s,5%,106.7 s,10%,115.6 s,30%,149.3 s,50%,205.1 s,55%,207.2 s,40%,202.1 s,
"CCC[C@H](N[C@@H](C)C(=O)N1C2CCC(CC2)[C@H]1C(N)=O)C(N)=O [Example 3, (3S)-2-{(S)-2-[(S)-1-CARBAMOYLBUTYL-AMINO]PROPIONYL}-3-CARBAMOYL-2-AZABICYCLO[2.2.2]OCTANE]",,20%,125.2 s,10%,121.3 s,5%,108.2 s,10%,119.3 s,35%,166.4 s,45%,171.6 s,40%,182.6 s,
